Experimental data: patent US9241996B2, “Photochemical internalisation of kinase inhibitors” (PCI BIOTECH AS, priority 2008, dated 2016)
Where two headings read alike, the source gives them in different places.

What was measured:
[1] = test system: NCI-H460 human lung cancer cell line; test: CellTiter-Blue cell survival after PCI (TPCS2a, LumiSource illumination) with TKI, NCI-H460; details: for IC50: Homo sapiens, read-out: nilotinib dose needed to achieve 50% cell killing
[2] = test system: multi-drug resistant NCI-ADR-RES cancer cell line; test: CellTiter-Blue cell survival after PCI (TPCS2a, LumiSource illumination) with TKI, NCI-ADR-RES; format: cell-based; details: for IC50: Homo sapiens, NCI/ADR-RES, read-out: nilotinib dose needed to achieve 50% cell killing
Description: TPCS2a was diluted into growth medium at 0.4 μg/ml (NCI-H460) or 0.8 μg/ml (NCI-ADR-RES) and 25 μl was added to each test well (final assay concentrations 0.2 μg/ml and 0.4 μg/ml, respectively).
The plates were washed 6 times with 50 μl wash buffer using an EMBLA 384-well plate washer.
The plates were washed as before.

[3] = at typical therapeutic doses per patient per day; cited from earlier work
[4] = test system: A431 human epithelial carcinoma cell line; test: Cell survival by Coulter Counter after TPCS2a photochemical treatment and imatinib (Example 1); format: cell-based
Description: Cells from the A431 human epithelial carcinoma cell line (75,000 cells/well, 1.5 mL/well) were seeded into 6-well plates (Nunc, Denmark), incubated for 5 hours, then 0.1 μg/mL TPCS2a was added and the cells were further incubated for 18 h (5% v/v CO2, 37° C. in DMEM medium with penicillin 100 U/mL, Glutamine 2 mM, Streptomycin 100 μg/mL). The cells were washed twice with medium (1 mL/well), incubated for 4 hours (37° C., 5% v/v CO2) in serum-containing medium and illuminated for 1, 2 or 4 minutes as shown in FIG. 2.
The cells were washed twice with Trypsin EDTA (200 μL/well) and incubated for 5 minutes (400 μL/well), then 1.5 mL medium was added and the mixture transferred to 10 mL tubes and centrifuged for 3 minutes at 1000 rpm. After removing the medium, 1 mL PBS (Phosphate Buffered Saline) was added and the solution mixed thoroughly. 750 μL was transferred to a beaker with 20 mL PBS and the amount of viable cells was determined with a Coulter Counter apparatus.

[5] = test system: A-431 human skin carcinoma; test: Growth inhibition (Coulter counting, survival fraction) after PDT with TPPS2a, AG1478 and the combination (Example 3); format: cell-based; details: for synergy/antagonism value F: p=0.05
Description: The studies were performed using the EGFR positive cell line A-431 human skin carcinoma (ATCC, CRL 1555). The A-431 cells were subcultured two or three times a week in DMEM (Bio Whitaker Europe, Velviers, Belgium). Media were supplied with 10% fetal calf serum (FCS) (GIBCO BRL, Paisley, UK), 100 U/ml penicillin, 100 U/ml streptomycin (Sigma, St. Loice, MO) and 2 mM glutamine (Bio Whittaker, Velviers, Belgium). The cells were grown and incubated in 75 cm^2 flasks (Nunc, Roskilde, Denmark) at 37° C. in a humidified atmosphere containing 5% CO2.
(§1) A-431 cells were seeded out and left to fasten for 6 hrs, or longer as described for the different combination treatment regimes with Tyrphostin AG1478, before an 18 hour incubation with 0.1 ug/ml LumiTrans (TPPS2a, meso-tetraphenylporphine with two sulfonate groups on adjacent phenyl rings) (PCI Biotech AS, Oslo, Norway). The cells were then washed twice with drug free medium and chased in new drug free medium for 4 hrs to wash the TPPS2a off the plasma membrane. Cells were then exposed to blue light from LumiSource (PCT Biotech AS) consisting of 4 light tubes delivering light with λ=[…], maximum at 435 nm and irradiance=13.5 mW/cm^2 at different doses as indicated in the figures.
Growth inhibition measurements were carried out after incubation of the cells for 72 hrs with different concentrations of AG1478 directly after exposure to light. Cell counting was performed with an in-house made Coulter counter after trypsination and resuspension in PBS. Two parallels of each sample were made, and the experiments were reproduced twice at least.
For each experiment the survival fraction (SF) of cells was found by dividing the number of treated cells by the average number of untreated cells in the two parallels. The expected additive effect was computed as SFadd=SFPDT×SFTKI where SFPDT and SFTKI refers to the observed effect after PDT or TKI treatment alone. SFadd was then compared to the observed effect of the combined treatment, SFcomb, using the synergy/antagonism value F F=log SFadd/log SFComb=log SFTKI+log SFPDT−log SFcorab
Antagonistic effects would result in negative F values. Significant deviations of F from zero were established through t-tests.

EGFR = biological target: T1, EGFR (Homo sapiens, UniProt P00533); test: Western blotting of total and phosphorylated EGFR after PDT, AG1478 and the combination; format: cell-based
T1 construct: time dependent effects on total and phosphorylated EGFR after PDT˜LD50, AG1478 (TKI)˜LD50 and the combination treatment in A-431 cells; endogenous in cells; host or cells: A-431 human skin carcinoma cells (ATCC, CRL 1555)
T1 sequence (P00533 25-1210): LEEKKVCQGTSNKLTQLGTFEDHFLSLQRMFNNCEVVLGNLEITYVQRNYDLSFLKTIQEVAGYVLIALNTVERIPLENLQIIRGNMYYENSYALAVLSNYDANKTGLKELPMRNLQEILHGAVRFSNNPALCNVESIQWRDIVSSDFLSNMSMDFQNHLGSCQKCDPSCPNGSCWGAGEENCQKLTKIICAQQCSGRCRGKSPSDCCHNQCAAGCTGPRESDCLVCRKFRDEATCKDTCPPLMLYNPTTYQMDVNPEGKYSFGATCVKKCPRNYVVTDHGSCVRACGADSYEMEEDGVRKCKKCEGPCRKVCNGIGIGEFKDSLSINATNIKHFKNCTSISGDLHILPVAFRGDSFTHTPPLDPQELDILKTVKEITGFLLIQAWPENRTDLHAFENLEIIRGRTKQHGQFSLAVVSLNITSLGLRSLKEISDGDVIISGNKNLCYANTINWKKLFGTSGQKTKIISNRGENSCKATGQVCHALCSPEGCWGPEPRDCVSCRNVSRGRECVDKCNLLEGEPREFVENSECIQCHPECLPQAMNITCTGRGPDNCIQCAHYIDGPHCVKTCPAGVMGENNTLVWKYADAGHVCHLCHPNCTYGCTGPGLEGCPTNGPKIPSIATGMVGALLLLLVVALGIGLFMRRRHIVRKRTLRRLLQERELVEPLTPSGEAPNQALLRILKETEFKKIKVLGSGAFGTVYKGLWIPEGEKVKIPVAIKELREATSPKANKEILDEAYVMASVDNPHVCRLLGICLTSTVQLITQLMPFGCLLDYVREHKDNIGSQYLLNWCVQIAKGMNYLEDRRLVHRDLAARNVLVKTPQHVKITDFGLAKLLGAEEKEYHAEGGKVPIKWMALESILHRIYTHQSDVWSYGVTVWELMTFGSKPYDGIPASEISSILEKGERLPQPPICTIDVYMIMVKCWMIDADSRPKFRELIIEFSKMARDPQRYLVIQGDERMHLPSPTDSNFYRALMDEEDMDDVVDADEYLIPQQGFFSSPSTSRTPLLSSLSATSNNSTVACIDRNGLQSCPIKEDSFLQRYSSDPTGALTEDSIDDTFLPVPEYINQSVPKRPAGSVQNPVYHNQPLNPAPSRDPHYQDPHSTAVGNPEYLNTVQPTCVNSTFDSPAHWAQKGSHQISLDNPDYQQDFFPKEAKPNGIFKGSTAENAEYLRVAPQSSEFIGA
Description: as §1
At indicated times after light exposure the cell-medium was removed and cells were incubated for 2 minutes with 100 ng/ml EGF. Cells were then placed on ice and the sample preparation was performed as described before (Weyergang et al., 2007, Biochem. Pharmacol., 74, p226-235). The same amount of lysed cells from each sample, as measured by the absorption of nucleic acids at 260 nm, was subjected to gel electrophoresis on 12% SDS/polyacrylamide gels and blotted to Hybond-P PVDF membranes (Amersham Biosciences, Amersham Place, UK). Immunodetection was carried out using antibodies from Cell Signal Technology (Cell Signalling Technology Beverly, Mass.); EGFR antibody (#2232), Phospho-EGFR antibody (#2236), Anti-mouse IgG, HRP-linked Antibody (#7076) Anti-rabbit IgG, HRP-linked Antibody (#7074). ECL Plus Western blotting Detection Reagents, STORM and Image Quant from GE Healthcare (GE Healthcare, Amersham Place, UK) was used to detect protein bands on the membrane.

A431 cells = test: Cell survival by MTT assay after TPCS2a photochemical treatment and imatinib (Example 2); format: cell-based, human; details: imatinib up to 25 μM
Description: A431 cells (2500 cells/well, 100 μL/well) were seeded into 96-well plates (Nunc, Denmark) and incubated for 5 hours, then 0.1 μg/mL TPCS2a was added and incubated for 18 h (5% v/v CO2, 37° C., DMEM medium with penicillin 100 U/mL, Glutamine 2 mM, Streptomycin 100 μg/mL). […] After a further 72 hours incubation, cell survival was measured by the MTT assay.
The MTT method is based on reduction of a water-soluble tetrazolium salt (MTT) to a purple, insoluble formazan product by mitochondrial dehydrogenases present in living, metabolically active cells. 100 μL medium containing 0.25 μg MTT was added to the cells, followed by 1 h and 30 min of incubation (37° C., 5% v/v CO2). The resulting formazan crystals were dissolved by adding 100 μl DMSO (Sigma, Mo., USA) per well. The 96 well plate was read by a Multiscan EX micro plate reader (Labsystems, Finland) with a 570 nm band pass filter.

C#Cc1cccc(Nc2ncnc3cc(OCCOC)c(OCCOC)cc23)c1 [erlotinib]
erlotinib dose needed to induce 30% cell killing ([1]; 2 min illumination, TPCS2a 0.2 μg/ml): 14 µM | erlotinib dose needed to induce 30% cell killing ([1]; 3 min illumination, TPCS2a 0.2 μg/ml): 4 µM | potentiation of the effect by photochemical internalisation ([1]; erlotinib, NCI-H460, 3 min versus no illumination): 10 times | erlotinib dose needed to induce 30% cell killing ([1]; no illumination): 43 µM | erlotinib dose at which 20% cell killing was achieved ([2]; 2 min illumination, TPCS2a 0.4 μg/ml): about 100 μM | erlotinib dose at which 20% cell killing was achieved ([2]; 3 min illumination, TPCS2a 0.4 μg/ml): about 100 μM | erlotinib dose at which 20% cell killing was achieved ([2]; 4 min illumination, TPCS2a 0.4 μg/ml): about 10 μM | typical blood concentrations [3]: 1 to 10 µM

tetraphenyl chlorin disulfonate [TPCS2a]
cell survival, illumination alone ([4]; TPCS2a 0.1 μg/mL, illuminated 1, 2 or 4 minutes, no imatinib): cell survival decreases with increasing illumination time in a dose-dependent manner

Cc1cn(-c2cc(NC(=O)c3ccc(C)c(Nc4nccc(-c5cccnc5)n4)c3)cc(C(F)(F)F)c2)cn1 [nilotinib]
IC50 ([1]; NCI-H460, 0 h): 6 µM | IC50 ([1]; NCI-H460, 5 min): ~1.7 µM | IC50 ([2]; 0 h, 0 min illumination): ~20 µM | IC50 ([2]; 4 min, 4 min illumination, TPCS2a 0.4 μg/ml): ~10 µM | typical blood concentrations [3]: 1 to 5 µM

O=S(=O)(O)c1ccc(-c2c3nc(c(-c4ccc(S(=O)(=O)O)cc4)c4ccc([nH]4)c(-c4ccccc4)c4nc(c(-c5ccccc5)c5ccc2[nH]5)C=C4)C=C3)cc1 [PDT, meso-tetraphenylporphine with two sulfonate groups on adjacent phenyl rings]
average survival fraction, PDT treatment only ([5]; TPPS2a 0.1 ug/ml and blue light, mean of three independent experiments): 0.61 | phosphorylated EGFR after PDT alone (EGFR; 1-4 hrs after PDT with LD50, A-431 cells): No decrease in phosphorylated EGFR was observed | phospho-EGFR after PDT alone (EGFR; measured 1 hour after PDT, doses reducing relative viability up to 10% of untreated, A-431 cells): did not result in a pronounced reduction

COc1cc2ncnc(Nc3cccc(Cl)c3)c2cc1OC [AG1478, Tyrphostin AG1478]
synergy/antagonism value F ([5]; 4 uM AG1478 with PDT): 0.18±0.09 | synergy/antagonism value F ([5]; 5 uM AG1478 with PDT): 0.17±0.08 | average survival fraction, TKI treatment only ([5]; AG1478 72 hrs, mean of three independent experiments (FIG. 6: 4 and 5 μM TKI)): 0.41 | average survival fraction, two treatments combined ([5]; AG1478 administrated directly after light exposure (PDT), mean of three independent experiments): 0.16 | synergy/antagonism value F, mean and st. error ([5]; AG1478 between 1 and 5 μM with PDT, p=0.005): 0.15 ± 0.05 | synergy/antagonism parameter F of the experiments ([5]; AG1478 with PDT, three independent experiments): positive and statistically significant from 0 | calculated additive effect of the two treatments (SFadd) ([5]; SFPDT×SFTKI): 0.24 | EGFR phosphorylation (EGFR; 4 μM AG1478 alone, 1-4 hrs, A-431 cells): strong attenuation of EGFR phosphorylation | EGFR phosphorylation, combination therapy (EGFR; PDT (LD50) and AG1478, A-431 cells): same decrease in EGFR phosphorylation as that observed with the AG1478 treatment alone

Cc1ccc(NC(=O)c2ccc(CN3CCN(C)CC3)cc2)cc1Nc1nccc(-c2cccnc2)n1 [imatinib]
cytotoxicity of imatinib alone (A431 cells; 0 s illumination, 72 hours): only modest cytotoxicity even at the highest dose | cytotoxic effect with illumination (A431 cells; TPCS2a 0.1 μg/mL, 60 or 120 s illumination, corrected for photochemical treatment alone): illumination increased the cytotoxic effect of imatinib in a light dose-dependent manner | cytotoxicity versus photochemical treatment alone ([4]; imatinib 5×10^-6 M, TPCS2a 0.1 μg/mL, illuminated 1, 2 or 4 minutes, 72 hour incubation): substantially higher cytotoxicity | effect on cell survival ([4]; imatinib 5×10^-6 M, without illumination, TPCS2a-treated A431 cells, 72 hour incubation): no significant effect on cell survival
